Experimental data as given in ChEMBL document CHEMBL1133241, “Phenylacetamides as selective alpha-1A adrenergic receptor antagonists” (Bioorg Med Chem Lett, 2000).

What was measured:
[1] = target: T1, Alpha-1A adrenergic receptor (Homo sapiens, UniProt P35348); test: Inhibition of binding of [125I]HEAT to cloned human alpha-1A adrenergic receptor.
T1 sequence (P35348 whole entry): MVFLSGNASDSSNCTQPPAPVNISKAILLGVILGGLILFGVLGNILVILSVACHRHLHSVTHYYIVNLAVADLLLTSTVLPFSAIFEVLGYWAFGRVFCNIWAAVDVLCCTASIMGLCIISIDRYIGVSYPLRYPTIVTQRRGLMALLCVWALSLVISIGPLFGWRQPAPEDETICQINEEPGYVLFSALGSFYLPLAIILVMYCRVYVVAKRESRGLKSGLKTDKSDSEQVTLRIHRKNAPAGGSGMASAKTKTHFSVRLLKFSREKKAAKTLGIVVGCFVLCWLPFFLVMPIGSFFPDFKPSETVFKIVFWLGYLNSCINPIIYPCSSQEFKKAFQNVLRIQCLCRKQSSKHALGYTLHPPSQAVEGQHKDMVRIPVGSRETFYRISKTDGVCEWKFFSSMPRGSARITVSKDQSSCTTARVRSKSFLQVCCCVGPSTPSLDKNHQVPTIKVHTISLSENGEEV

[2] = target: T2, Alpha-1B adrenergic receptor (Homo sapiens, UniProt P35368); test: Inhibition of binding of [125I]HEAT to cloned human alpha-1B adrenergic receptor.
T2 sequence (P35368 whole entry): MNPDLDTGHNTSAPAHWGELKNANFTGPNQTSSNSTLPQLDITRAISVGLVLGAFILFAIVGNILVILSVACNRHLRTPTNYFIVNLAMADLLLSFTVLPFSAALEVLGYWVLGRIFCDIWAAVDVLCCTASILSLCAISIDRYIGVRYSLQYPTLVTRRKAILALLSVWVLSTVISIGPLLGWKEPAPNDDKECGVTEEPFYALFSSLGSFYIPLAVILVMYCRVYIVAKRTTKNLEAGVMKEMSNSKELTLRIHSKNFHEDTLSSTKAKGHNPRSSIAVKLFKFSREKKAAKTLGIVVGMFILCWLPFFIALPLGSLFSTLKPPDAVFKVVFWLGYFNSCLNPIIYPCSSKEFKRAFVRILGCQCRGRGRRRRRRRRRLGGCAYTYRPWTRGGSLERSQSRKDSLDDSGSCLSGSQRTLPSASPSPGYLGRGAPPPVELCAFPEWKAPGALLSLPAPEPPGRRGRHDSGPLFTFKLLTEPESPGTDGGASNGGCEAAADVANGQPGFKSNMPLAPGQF

[3] = target: T3, Alpha-1D adrenergic receptor (Homo sapiens, UniProt P25100); test: Inhibition of binding of [125I]HEAT to cloned human alpha-1D adrenergic receptor.
T3 sequence (P25100 whole entry): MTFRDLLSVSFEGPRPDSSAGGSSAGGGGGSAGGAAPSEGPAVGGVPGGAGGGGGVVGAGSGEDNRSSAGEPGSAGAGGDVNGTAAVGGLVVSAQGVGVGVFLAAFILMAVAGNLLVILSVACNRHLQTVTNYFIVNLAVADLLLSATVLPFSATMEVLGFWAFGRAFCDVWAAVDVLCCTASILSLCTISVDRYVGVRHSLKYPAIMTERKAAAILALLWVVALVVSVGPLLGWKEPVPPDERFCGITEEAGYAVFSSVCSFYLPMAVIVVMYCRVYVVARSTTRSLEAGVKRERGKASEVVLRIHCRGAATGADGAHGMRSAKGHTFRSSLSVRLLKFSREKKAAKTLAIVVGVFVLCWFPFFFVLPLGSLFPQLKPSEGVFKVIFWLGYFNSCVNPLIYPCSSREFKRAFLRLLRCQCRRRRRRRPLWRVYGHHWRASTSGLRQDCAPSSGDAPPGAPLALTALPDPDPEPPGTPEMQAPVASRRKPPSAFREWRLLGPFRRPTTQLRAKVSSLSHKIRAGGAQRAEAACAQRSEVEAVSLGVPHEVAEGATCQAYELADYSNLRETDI

| Structure (SMILES) | Ki [1] [nM] | Ki [2] [nM] | Ki [3] [nM] |
| --- | --- | --- | --- |
| Cc1ccccc1C1(C#N)CCN(CCCNC(=O)C(c2ccc(Cl)cc2)C(C)C)CC1 (stereo not given) | 6.4 | 870 | 1300 |
| Cc1ccc(C(C(=O)NCCCN2CCC(c3ccccn3)CC2)c2ccc(C)cc2)cc1 | 27 | 670 | 3600 |
| Cc1ccc(C(C(=O)NCCCN2CCC(c3ccccc3)CC2)c2ccc(C)cc2)cc1 | 8.8 | 34 | 230 |
| N#CC1(c2ccccc2)CCN(CCCNC(=O)C(c2ccccc2)c2ccccc2)CC1 | 28 | 840 | 3300 |
| Cc1ccc(C(C(=O)NCCCN2CCC(C#N)(c3ccccc3C)CC2)C(C)C)cc1 (stereo not given) | 7.4 | 650 | 1100 |
| Cc1ccc(C(C(=O)NCCCN2CCC(C#N)(c3ccccc3C)CC2)c2ccc(C)cc2)cc1 | 1.3 | 360 | 1100 |
| Cc1ccc(C(C(=O)NCCCN2CCN(c3ccccc3C)CC2)c2ccc(C)cc2)cc1 | 1.1 | 6.6 | 36 |
| COC(=O)C1(c2ccccc2)CCN(CCCNC(=O)C(c2ccc(C)cc2)c2ccc(C)cc2)CC1 | 5.1 | 450 | 960 |
| Cc1ccccc1C1(C#N)CCN(CCCNC(=O)C(c2ccc(F)cc2)C(C)C)CC1 (stereo not given) | 24 | 960 | 2400 |
| COC(=O)C1(c2ccccc2)CCN(CCNC(=O)CCc2ccc([N+](=O)[O-])cc2)CC1 | 380 | > 3000 | 1500 |
| COC(=O)C1(c2ccccc2)CCN(CCCNC(=O)CCc2ccc([N+](=O)[O-])cc2)CC1 | 240 | 910 | 1300 |
| COc1ccccc1C1(C#N)CCN(CCCNC(=O)C(c2ccc(C)cc2)c2ccc(C)cc2)CC1 | 7.5 | 570 | 710 |
| Cc1ccccc1C1(C#N)CCN(CCCNC(=O)C(c2cccc(F)c2)C(C)C)CC1 (stereo not given) | 3.4 | 680 | 2700 |
| Cc1ccc(C(C(=O)NCCCN2CCC(C#N)(c3ccccc3C(F)(F)F)CC2)c2ccc(C)cc2)cc1 | 22 | 1900 | 3200 |
| Cc1ccc(C(C(=O)NCCCN2CCC(C#N)(c3ccccn3)CC2)c2ccc(C)cc2)cc1 | 25 | > 2000 | > 5000 |
| Cc1ccc(C(C(=O)NCCCN2CCN(c3ccccc3)CC2)c2ccc(C)cc2)cc1 | 12 | 23 | 128 |
| COC(=O)C1(c2ccccc2)CCN(CCCNC(=O)Cc2ccc([N+](=O)[O-])cc2)CC1 | 75 | 3300 | 6300 |
| COC(=O)C1(c2ccccc2)CCN(CCCNC(=O)Cc2ccc(C)cc2)CC1 | 74 | > 3000 | 3400 |
| Cc1ccc(C(C(=O)NCCCN2CCC(C#N)(c3ccccc3)CC2)c2ccc(C)cc2)cc1 | 7.3 | > 2000 | 1400 |
| Cc1ccc(C(C(=O)NCCCN2CCC(C(N)=O)(c3ccccc3)CC2)c2ccc(C)cc2)cc1 | 570 | 570 | 3300 |
| Cc1ccc(C(C(=O)NCCCN2CCC(C#N)(c3ccccc3Cl)CC2)c2ccc(C)cc2)cc1 | 0.99 | 280 | 600 |
| COC(=O)C1(c2ccccc2)CCN(CCCNC(=O)C(C)c2ccc([N+](=O)[O-])cc2)CC1 (stereo not given) | 47 | 1700 | 1700 |
| N#CC1(c2ccccc2)CCN(CCCNC(=O)C(c2ccccc2)C2CCCCC2)CC1 (racemic) | 61 | 1100 | 2500 |
| N#CC1(c2ccccc2)CCN(CCCNC(=O)C(c2ccccc2)C2CCCC2)CC1 (racemic) | 50 | 2000 | 2300 |
| COC(=O)C1(c2ccccc2)CCN(CCCNC(=O)C2=C(C)N=C(C)/C(=C(/O)OC)C2c2ccc([N+](=O)[O-])cc2)CC1 (racemic) | – | – | 1100 |
| CC(C)C(C(=O)NCCCN1CCC(C#N)(c2ccccc2)CC1)c1ccccc1 (racemic) | 72 | 1200 | 2900 |
| Cc1ccccc1C1(C#N)CCN(CCCNC(=O)C(c2ccc(F)c(F)c2)C(C)C)CC1 (single isomer, unassigned; (+)) | 2 | 1400 | 2100 |
| Cc1ccccc1C1(C#N)CCN(CCCNC(=O)C(c2ccc(F)c(F)c2)C(C)C)CC1 (single isomer, unassigned; (-)) | 50 | 1200 | 2600 |
| Cc1ccccc1C1(C#N)CCN(CCCNC(=O)C(c2ccc(F)c(F)c2)C(C)C)CC1 (stereo in doubt; 28) | 2 | 900 | 1600 |
